Tests used:
[1] = biological target: T1, recombinant human ACC1 (acetyl-CoA carboxylase 1) (Homo sapiens, UniProt Q13085); assay: Human ACC1 enzyme assay (HTRF ADP detection); format: biochemical; conditions: 50 μM ATP, 20 μM acetyl-CoA, 15 min pre-incubation, 20 min at 22° C.; read-out: ACC 1 IC50;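 also: ADP by-product quantified by competitive HTRF immunoassay with europium cryptate anti-ADP antibody and d2-labelled ADP, read after 1 h binding at 22 °C, enzyme near 2.5 ng/µl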
T1 construct: NM_198834, amino acids 39—end; FLAG (C); made in house; host or cells: baculovirus-transfected insect cells (Hi5)
Method: The basic principle of the assay is the measurement of adenosine diphosphate (ADP), which is formed as a by-product, by means of an HTRF®-based competitive immunoassay (HTRF=Homogeneous Time Resolved Fluorescence).
The amount of complex of d2-labelled ADP and europium cryptate-labelled anti-ADP antibody was then determined by measuring the resonance energy transfer of europium cryptate to d2.

[2] = biological target: T2, ACC2 (acetyl-CoA carboxylase 2) (Homo sapiens, UniProt O00763); assay: Human ACC2 enzyme assay (HTRF ADP detection); format: biochemical; conditions: 20 μM acetyl-CoA, 15 min pre-incubation, 20 min at 22° C.; read-out: ACC 2 IC50
T2 construct: catalogue no; 50201, amino acids 39—end, expressed in baculovirus-transfected Sf9 insect cells; His (C); purchased BPS Bioscience (San Diego, Calif.) 50201; host or cells: baculovirus-transfected Sf9 insect cells
T2 sequence (O00763 39-2458 limits assumed): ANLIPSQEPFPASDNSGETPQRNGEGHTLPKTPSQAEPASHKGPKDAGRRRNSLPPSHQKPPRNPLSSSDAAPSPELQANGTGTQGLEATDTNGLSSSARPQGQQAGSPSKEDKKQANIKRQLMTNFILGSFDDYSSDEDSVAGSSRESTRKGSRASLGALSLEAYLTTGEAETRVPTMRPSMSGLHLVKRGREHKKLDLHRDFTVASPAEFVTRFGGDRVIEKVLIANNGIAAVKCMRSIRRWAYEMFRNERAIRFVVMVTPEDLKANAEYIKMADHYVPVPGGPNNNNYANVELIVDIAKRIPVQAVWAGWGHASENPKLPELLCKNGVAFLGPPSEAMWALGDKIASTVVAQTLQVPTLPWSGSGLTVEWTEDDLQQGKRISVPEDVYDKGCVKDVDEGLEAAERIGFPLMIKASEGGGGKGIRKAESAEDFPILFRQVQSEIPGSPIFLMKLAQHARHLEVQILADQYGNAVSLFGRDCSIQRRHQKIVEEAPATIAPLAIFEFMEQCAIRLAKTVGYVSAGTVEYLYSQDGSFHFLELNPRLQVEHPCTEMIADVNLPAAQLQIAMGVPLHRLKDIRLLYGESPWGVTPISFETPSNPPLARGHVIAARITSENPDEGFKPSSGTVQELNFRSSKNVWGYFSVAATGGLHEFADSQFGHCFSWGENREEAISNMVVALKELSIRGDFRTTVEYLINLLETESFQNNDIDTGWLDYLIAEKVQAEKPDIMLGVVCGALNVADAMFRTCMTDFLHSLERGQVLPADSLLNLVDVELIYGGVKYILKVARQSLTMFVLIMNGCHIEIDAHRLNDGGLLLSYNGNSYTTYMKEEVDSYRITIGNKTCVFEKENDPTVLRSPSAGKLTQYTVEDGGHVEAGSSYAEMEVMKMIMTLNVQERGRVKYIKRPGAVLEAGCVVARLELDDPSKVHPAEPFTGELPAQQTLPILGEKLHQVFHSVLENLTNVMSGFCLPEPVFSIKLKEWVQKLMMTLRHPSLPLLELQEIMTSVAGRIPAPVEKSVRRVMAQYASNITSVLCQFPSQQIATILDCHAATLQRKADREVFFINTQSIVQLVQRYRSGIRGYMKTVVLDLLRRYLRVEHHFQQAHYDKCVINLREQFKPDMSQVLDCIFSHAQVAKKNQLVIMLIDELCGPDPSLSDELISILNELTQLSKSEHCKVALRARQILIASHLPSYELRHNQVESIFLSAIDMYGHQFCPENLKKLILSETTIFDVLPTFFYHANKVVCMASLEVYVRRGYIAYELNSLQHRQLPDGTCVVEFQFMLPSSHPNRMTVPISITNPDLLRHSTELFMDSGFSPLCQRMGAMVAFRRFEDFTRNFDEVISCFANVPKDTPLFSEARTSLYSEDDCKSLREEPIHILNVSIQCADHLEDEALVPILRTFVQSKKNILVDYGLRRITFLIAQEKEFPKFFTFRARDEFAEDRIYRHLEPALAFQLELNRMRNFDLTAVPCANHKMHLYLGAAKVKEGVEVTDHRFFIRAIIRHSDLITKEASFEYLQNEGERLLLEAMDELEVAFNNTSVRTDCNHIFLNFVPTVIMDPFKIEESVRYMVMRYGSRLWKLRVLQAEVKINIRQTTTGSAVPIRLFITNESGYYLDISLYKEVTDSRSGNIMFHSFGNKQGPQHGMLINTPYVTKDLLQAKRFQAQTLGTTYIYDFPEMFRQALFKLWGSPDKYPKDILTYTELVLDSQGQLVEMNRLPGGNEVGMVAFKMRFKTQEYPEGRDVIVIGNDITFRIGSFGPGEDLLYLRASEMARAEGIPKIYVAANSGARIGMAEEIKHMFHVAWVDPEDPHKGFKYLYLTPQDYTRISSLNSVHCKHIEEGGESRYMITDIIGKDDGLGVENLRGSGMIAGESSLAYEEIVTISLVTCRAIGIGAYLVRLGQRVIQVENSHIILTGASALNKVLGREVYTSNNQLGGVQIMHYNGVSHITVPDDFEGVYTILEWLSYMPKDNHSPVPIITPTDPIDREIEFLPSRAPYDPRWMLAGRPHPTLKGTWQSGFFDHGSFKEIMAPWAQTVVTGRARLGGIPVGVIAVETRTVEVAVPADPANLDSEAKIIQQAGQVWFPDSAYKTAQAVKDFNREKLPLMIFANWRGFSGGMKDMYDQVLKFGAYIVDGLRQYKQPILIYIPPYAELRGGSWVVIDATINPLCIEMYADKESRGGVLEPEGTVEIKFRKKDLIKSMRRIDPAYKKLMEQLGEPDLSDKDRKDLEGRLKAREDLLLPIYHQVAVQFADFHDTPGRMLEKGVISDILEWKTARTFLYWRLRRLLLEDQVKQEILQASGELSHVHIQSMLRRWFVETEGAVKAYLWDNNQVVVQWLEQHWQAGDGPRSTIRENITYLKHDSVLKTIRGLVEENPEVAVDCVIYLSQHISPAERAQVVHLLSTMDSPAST

| Compound | IC50 [1] [nM] | IC50 [2] [nM] |
| --- | --- | --- |
| Cc1ccc(-c2ccc(C)c(C3=C(O)C4(CCCOC4)NC3=O)c2)cc1 (centres unmarked) [Example 1-14, 3-(4,4′-dimethylbiphenyl-3-yl)-4-hydroxy-7-oxa-1-azaspiro[4.5]dec-3-en-2-one] | 990 | > 20000 |
| Cc1ccc(-c2ccc(Cl)cc2)c(C)c1C1=C(O)C2(CCC3(CCCO3)CC2)NC1=O (centres unmarked) [Example 1-34, 11-(4′-chloro-2,4-dimethylbiphenyl-3-yl)-12-hydroxy-1-oxa-9-azadispiro[4.2.4.2]tetradec-11-en-10-one] | 470 | 9400 |
| Cc1cc(C)c(-c2ccc(Cl)cc2)cc1C1=C(O)C2(CCCOC2)NC1=O (centres unmarked) [Example 1-8, 3-(4′-chloro-4,6-dimethylbiphenyl-3-yl)-4-hydroxy-7-oxa-1-azaspiro[4.5]dec-3-en-2-one] | 790 | 810 |
| Cc1cc(C)c(-c2ccc(Cl)cc2)cc1C1=C(O)[C@]2(CC[C@@]3(CCCO3)CC2)OC1=O [Example 2-30, (5r,8s)-3-(4′-chloro-4,6-dimethylbiphenyl-3-yl)-4-hydroxy-1,9-dioxadispiro[4.2.4.2]tetradec-3-en-2-one] | 281 | 32 |
| Cc1ccc(-c2ccc(Cl)cc2)c(C)c1C1=C(O)C2(CCC(C)CC2)NC1=O (centres unmarked) [Example 1-4, 3-(4′-chloro-2,4-dimethylbiphenyl-3-yl)-4-hydroxy-8-methyl-1-azaspiro[4.5]dec-3-en-2-one] | 460 | 330 |
| Cc1cc(C)c(-c2ccc(Cl)cc2)cc1C1=C(O)C(C)(C)CCC1=O [Example 7-4, 2-(4′-chloro-4,6-dimethylbiphenyl-3-yl)-3-hydroxy-4,4-dimethylcyclohex-2-en-1-one] | 3670 | 3710 |
| COCC1CCC2(CC1)NC(=O)C(c1cc(-c3ccc(Cl)cc3)ccc1Cl)=C2O (centres unmarked) [Example 1-54, 3-(4,4′-dichlorobiphenyl-3-yl)-4-hydroxy-8-(methoxymethyl)-1-azaspiro[4.5]dec-3-en-2-one] | 220 | 1100 |
| COCCC1CCCC2(C1)OC(=O)C(c1cc(-c3ccc(Cl)cc3)ccc1Cl)=C2O (centres unmarked) [Example 2-19, 3-(4,4′-dichlorobiphenyl-3-yl)-4-hydroxy-7-(2-methoxyethyl)-1-oxaspiro[4.5]dec-3-en-2-one] | 530 | 10000 |
| COCC1CCCC2(C1)NC(=O)C(c1cc(-c3ccc(Cl)cc3)ccc1C)=C2O (centres unmarked) [Example 1-51, 3-(4′-chloro-4-methylbiphenyl-3-yl)-4-hydroxy-7-(methoxymethyl)-1-azaspiro[4.5]dec-3-en-2-one] | 473 | 4910 |
| Cc1ccc(-c2ccc(Cl)cc2)cc1C1=C(O)C(C)(C)C(C)(C)OC1=O [Example 10-2, 3-(4′-chloro-4-methylbiphenyl-3-yl)-4-hydroxy-5,5,6,6-tetramethyl-5,6-dihydro-2H-pyran-2-one] | 586 | > 20000 |
| O=C1NC2(CCOCC2)C(O)=C1c1cc(-c2cc(F)c(F)c(F)c2)ccc1Cl [Example 1-38, 3-(4-chloro-3′,4′,5′-trifluorobiphenyl-3-yl)-4-hydroxy-8-oxa-1-azaspiro[4.5]dec-3-en-2-one] | 497 | > 20000 |
| (5r,8r)-3-(4′-chloro-2,4-dimethylbiphenyl-3-yl)-4-hydroxy-8-methoxy-8-methyl-1-azaspiro[4.5]dec-3-en-2-one [Example 1-87] | 540 | 7300 |
| Cc1ccc(-c2ccc(Cl)cc2)cc1C1=C(O)CC2(CCCCC2)CC1=O [Example 7-2, 3-(4′-chloro-4-methylbiphenyl-3-yl)-4-hydroxyspiro[5.5]undec-3-en-2-one] | 578 | > 20000 |
| COCC1CCC2(CC1)OC(=O)C(c1cc(-c3ccc(Cl)cc3)ccc1Cl)=C2O (centres unmarked) [Example 2-16, 3-(4,4′-dichlorobiphenyl-3-yl)-4-hydroxy-8-(methoxymethyl)-1-oxaspiro[4.5]dec-3-en-2-one] | 180 | 3340 |
| Cc1ccc(-c2ccc(Cl)cc2)c(C)c1C1=C(O)C2(CCCC2)OC1=O [Example 2-2, 3-(4′-chloro-2,4-dimethylbiphenyl-3-yl)-4-hydroxy-1-oxaspiro[4.4]non-3-en-2-one] | 260 | 5280 |
| Cc1ccc(-c2ccc(Cl)cc2)cc1C1=C(O)CN(C(C)C)C1=O [Example 1-17, 3-(4′-chloro-4-methylbiphenyl-3-yl)-4-hydroxy-1-(propan-2-yl)-1,5-dihydro-2H-pyrrol-2-one] | 334 | 4020 |
| COC1CCCC2(C1)OC(=O)C(c1cc(-c3ccc(Cl)cc3)c(C)cc1C)=C2O (centres unmarked) [Example 2-11, 3-(4′-chloro-4,6-dimethylbiphenyl-3-yl)-4-hydroxy-7-methoxy-1-oxaspiro[4.5]dec-3-en-2-one] | 666 | 1550 |

| Compound | IC50 [1] [nM] | IC50 [2] [nM] |
| --- | --- | --- |
| Cc1ccc(-c2ccc(Cl)cc2)cc1C1=C(O)C2(CCC3(CC2)OCC(C)CO3)NC1=O (centres unmarked) [Example 1-66, 3-(4′-chloro-4-methylbiphenyl-3-yl)-4-hydroxy-1′-methyl-9,13-dioxa-1-azadispiro[4.2.5.2]pentadec-3-en-2-one] | 409 | 1540 |
| CC1(C)OC(=O)C(c2cc(-c3ccc(Cl)cc3)ccc2Cl)=C(O)C1(C)C [Example 10-1, 3-(4,4′-dichlorobiphenyl-3-yl)-4-hydroxy-5,5,6,6-tetramethyl-5,6-dihydro-2H-pyran-2-one] | 1370 | > 20000 |
| Cc1ccc(-c2ccc(Cl)cc2)cc1C1=C(O)CN(CC(C)C)C1=O [Example 1-27, 3-(4′-chloro-4-methylbiphenyl-3-yl)-4-hydroxy-1-(2-methylpropyl)-1,5-dihydro-2H-pyrrol-2-one] | 472 | > 20000 |
| COC1CCCC2(C1)OC(=O)C(c1c(C)cc(C)c(-c3ccc(Cl)cc3)c1C)=C2O (centres unmarked) [Example 2-12, 3-(4′-chloro-2,4,6-trimethylbiphenyl-3-yl)-4-hydroxy-7-methoxy-1-oxaspiro[4.5]dec-3-en-2-one] | 4170 | 1150 |
| COC1CCC2(CC1)NC(=O)C(c1c(C)cc(-c3ccc(Cl)cc3)cc1C)=C2O (centres unmarked) [Example C-2, reference compound] | > 20000 | > 20000 |
| O=C1C(c2cc(-c3ccc(Cl)c(Cl)c3)ccc2Cl)C(=O)N2CCOCCN12 [Example 8-10, 8-(3′,4,4′-trichlorobiphenyl-3-yl)tetrahydro-7H-pyrazolo[1,2-d][1,4,5]oxadiazepine-7,9(8H)-dione] | 1130 | > 20000 |
| Cc1ccc(-c2ccc(Cl)cc2)cc1C1=C(O)C2(CCOC(C)C2)NC1=O (centres unmarked) [Example 1-3, 3-(4′-chloro-4-methylbiphenyl-3-yl)-4-hydroxy-7-methyl-8-oxa-1-azaspiro[4.5]dec-3-en-2-one] | 450 | 5400 |
| Cc1ccc(-c2ccc(Cl)cc2)cc1C1=C(O)C2(CCC(C(C)C)CC2)NC1=O (centres unmarked) [Example 1-24, 3-(4′-chloro-4-methylbiphenyl-3-yl)-4-hydroxy-8-(propan-2-yl)-1-azaspiro[4.5]dec-3-en-2-one] | 340 | 210 |
| Cc1ccc(-c2ccc(Cl)cc2)c(C)c1C1=C(O)C2(CCOCC2)NC1=O [Example 1-1, 3-(4′-chloro-2,4-dimethylbiphenyl-3-yl)-4-hydroxy-8-oxa-1-azaspiro[4.5]dec-3-en-2-one] | 460 | 8800 |
| COC1CCC2(CC1)OC(=O)C(c1cc(-c3ccc(Cl)cc3)c(C)cc1C)=C2O (centres unmarked) [Example 2-44, 3-(4′-chloro-4,6-dimethylbiphenyl-3-yl)-4-hydroxy-8-methoxy-1-oxaspiro[4.5]dec-3-en-2-one] | 297 | 160 |
| Cc1ccc(-c2ccc(Cl)cc2)cc1C1=C(O)CN(C)C1=O [Example 1-16, 3-(4′-chloro-4-methylbiphenyl-3-yl)-4-hydroxy-1-methyl-1,5-dihydro-2H-pyrrol-2-one] | 329 | > 20000 |
| CC1COC2(CCC3(CC2)NC(=O)C(c2cc(-c4ccc(Cl)cc4)ccc2Cl)=C3O)OC1 (centres unmarked) [Example 1-69, 3-(4,4′-dichlorobiphenyl-3-yl)-4-hydroxy-1′-methyl-9,13-dioxa-1-azadispiro[4.2.5.2]pentadec-3-en-2-one] | 647 | 11000 |
| Cc1ccc(-c2ccc(F)c(F)c2)cc1C1=C(O)C2(CCC3(CCCO3)CC2)NC1=O (centres unmarked) [Example 1-35, 11-(3′,4′-difluoro-4-methylbiphenyl-3-yl)-12-hydroxy-1-oxa-9-azadispiro[4.2.4.2]tetradec-11-en-10-one] | 298 | 4000 |
| COC1CCC2(CC1)OC(=O)C(c1c(C)ccc(-c3ccc(Cl)cc3)c1C)=C2O (centres unmarked) [Example 2-34, 3-(4′-chloro-2,4-dimethylbiphenyl-3-yl)-4-hydroxy-8-methoxy-1-oxaspiro[4.5]dec-3-en-2-one] | 286 | 1270 |
| CO[C@H]1CC[C@]2(CC1)NC(=O)C(c1cc(-c3ccc(Cl)cc3)ccc1C)=C2O [Example 1-2, (5s,8s)-3-(4′-chloro-4-methylbiphenyl-3-yl)-4-hydroxy-8-methoxy-1-azaspiro[4.5]dec-3-en-2-one] | […] | 370 |
| Cc1ccc(-c2ccc(F)c(Cl)c2)cc1C1=C(O)C2(CCCC2)OC1=O [Example 2-23, 3-(3′-chloro-4′-fluoro-4-methylbiphenyl-3-yl)-4-hydroxy-1-oxaspiro[4.4]non-3-en-2-one] | 1370 | > 20000 |
| COC1CCC2(CC1)NC(=O)C(c1cc(-c3ccc(Cl)cc3)ccc1Cl)=C2O (centres unmarked) [Example 1-11, 3-(4,4′-dichlorobiphenyl-3-yl)-4-hydroxy-8-methoxy-1-azaspiro[4.5]dec-3-en-2-one] | 240 | 1000 |

From patent US20120129833A1, “CYCLIC KETOENOLS FOR THERAPY” (BAYER PHARMA AKTIENGESELLSCHAFT, priority 2010, published 2012)
